# Entries after “also recorded” stand apart in the source; their conditions may differ.
# Tests used:
# PfcFRS [1] = target: T1, PfcFRS (Plasmodium falciparum, UniProt Q8I246); assay: PfcFRS mode of inhibition study (malachite green); assay type: biochemical; conditions: for 1/v (0.5 × IC50 ): inhibitor 0.5 × IC50; for 1/V (1 × IC50 ) / 1/v (1 × IC50 ): inhibitor 1 × IC50
# T1 sequence (Q8I246 1-575): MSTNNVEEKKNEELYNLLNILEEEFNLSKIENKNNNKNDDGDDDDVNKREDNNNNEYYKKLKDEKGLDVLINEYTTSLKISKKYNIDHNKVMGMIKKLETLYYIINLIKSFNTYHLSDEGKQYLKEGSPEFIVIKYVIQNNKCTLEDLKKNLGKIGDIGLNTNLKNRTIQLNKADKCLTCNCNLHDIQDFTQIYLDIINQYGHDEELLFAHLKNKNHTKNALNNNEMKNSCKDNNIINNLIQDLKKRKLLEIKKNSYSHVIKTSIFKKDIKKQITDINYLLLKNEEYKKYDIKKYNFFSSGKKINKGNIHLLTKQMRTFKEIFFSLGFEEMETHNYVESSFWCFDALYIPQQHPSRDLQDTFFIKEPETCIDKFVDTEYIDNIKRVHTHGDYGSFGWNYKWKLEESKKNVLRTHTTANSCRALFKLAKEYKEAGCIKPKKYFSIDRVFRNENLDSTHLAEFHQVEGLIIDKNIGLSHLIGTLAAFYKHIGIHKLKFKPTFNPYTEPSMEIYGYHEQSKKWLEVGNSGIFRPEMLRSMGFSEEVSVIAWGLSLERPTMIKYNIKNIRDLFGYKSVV
# T1 sequence (Q8IIW2 1-623 partner): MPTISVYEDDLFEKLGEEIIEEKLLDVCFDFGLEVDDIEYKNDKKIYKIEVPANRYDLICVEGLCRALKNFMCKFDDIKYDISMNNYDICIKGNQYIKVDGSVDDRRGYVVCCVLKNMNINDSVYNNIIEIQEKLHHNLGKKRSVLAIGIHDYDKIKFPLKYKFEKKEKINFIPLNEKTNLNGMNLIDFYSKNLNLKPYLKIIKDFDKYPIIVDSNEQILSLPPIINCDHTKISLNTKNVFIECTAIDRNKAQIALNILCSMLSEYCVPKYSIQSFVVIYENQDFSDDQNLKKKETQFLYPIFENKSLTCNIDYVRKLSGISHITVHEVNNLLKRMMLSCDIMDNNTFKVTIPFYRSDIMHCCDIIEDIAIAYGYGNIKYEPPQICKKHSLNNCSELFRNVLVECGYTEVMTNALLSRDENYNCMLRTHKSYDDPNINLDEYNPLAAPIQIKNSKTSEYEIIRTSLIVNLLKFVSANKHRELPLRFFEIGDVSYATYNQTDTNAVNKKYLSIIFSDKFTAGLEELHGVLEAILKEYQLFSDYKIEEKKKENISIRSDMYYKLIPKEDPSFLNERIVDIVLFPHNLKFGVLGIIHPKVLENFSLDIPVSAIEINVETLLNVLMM
# Description: These were done using malachite green assay as per earlier published reports[1],[6]. Briefly, the reaction was performed for 100 µM ATP, 50 µM L-phenylalanine and 100 nM recombinant PheRS enzymes (Pf, Pv, Hs, Pf mutant (L550V)) in a buffer containing 30 mM HEPES (pH 7.5), 150 mM, NaCl, 30 mM KCl, 50 mM, MgCl2, 1 mM DTT, and 2 U/ml E. coli inorganic pyrophosphatase (NEB) at 37 °C. Enzymatic reactions (50 μl total volume) were performed in clear, flat-bottomed, 96-well plates (Costar 96-well standard microplates). The reaction mixture was incubated for 2 h at 37 °C. The reaction was stopped by adding 12.5 μl of malachite green solution to the reaction mixture and levels of inorganic phosphate (Pi) were detected after incubation of 5 min at room temperature. Absorbance was the measured at 620 nm using a Spectramax M2 (Molecular Devices). Reactions without FRS enzyme were performed as background controls, values of which were subtracted from the reactions with enzyme. BRD1389 was added to our aminoacylation assay reaction buffer in varying concentrations ranging from 0.1 nM to 10,000 nM. The IC50 value for the data is shown for three replicates as the mean ± SD.
# To establish the mode of inhibition of BRD1389, data sets (generated using the malachite Green assay platform as described in the above enzyme inhibition assays method section) were collected by varying both the inhibitor and substrate concentrations.
# PfcFRS [2] = target: T1, PfcFRS; assay: Surface plasmon resonance binding; conditions: Pf; SPR, 1:1 binding model; read-out: Kd (cFRS)
# Description: These were carried out on a Biacore T200 instrument (GE Healthcare) at 25 °C. The binding experiments were performed in buffer 10 mM phosphate buffered saline (PBS), pH 7.4, containing 5% dimethyl sulfoxide (DMSO). The flow system was primed with the running buffer before the initiation of the experiment. Both PfcFRS and HscFRS were immobilized to Sensor Chip CM5 by standard amine coupling chemistry using N-hydroxysuccinimide (NHS) and ethyl(dimethylaminopropyl) carbodiimide (EDC) to an immobilization level of approximately 1500 RU. The binding experiments were carried out in a single cycle kinetics mode. BRD1389 was serially diluted in running buffer and injected at a flow rate of 60 μl min^−1 across both surfaces for 60 s and dissociations were set up for 120 s. The data analysis was done using Biacore evaluation T200 Evaluation software (GE Healthcare) and after applying the solvent correction, the data was fitted into the 1:1 binding evaluation method to determine the equilibrium dissociation constants (Kd).
# [3] = ATP 15.6 uM, saturating L-Phe 1000 μM
# [4] = ATP 31.25 uM, saturating L-Phe 1000 μM
# [5] = ATP 62.5 uM, saturating L-Phe 1000 μM
# [6] = ATP 125 uM, saturating L-Phe 1000 μM
# [7] = ATP 250 uM, saturating L-Phe 1000 μM
# [8] = ATP 500 uM, saturating L-Phe 1000 μM
# [9] = L-Phe 0.015625 mM, saturating ATP 500 μM
# [10] = L-Phe 0.031 mM, saturating ATP 500 μM
# [11] = L-Phe 0.0625 mM, saturating ATP 500 μM
# [12] = L-Phe 0.125 mM, saturating ATP 500 μM
# [13] = L-Phe 0.25 mM, saturating ATP 500 μM
# [14] = L-Phe 0.5 mM, saturating ATP 500 μM
# [15] = L-Phe 1 mM, saturating ATP 500 μM
compound,measurement,setting,value
COC[C@@H]1[C@H](c2ccc(C#Cc3ccccc3)cc2)[C@@H]2CN(C(=O)Nc3ccc(OC4CC4)cc3)C[C@@H](O)[C@@H](O)CN12 [BRD1389],Ki,"PfcFRS [1]; ATP varied, L-Phe saturating, non-competitive inhibition model",10 ± 5 nM
same,Ki,"PfcFRS [1]; L-Phe varied, ATP constant, global competitive inhibition model",6 ± 2 nM
same,Mode of inhibition with respect to ATP,"PfcFRS [1]; PfcFRS, ATP varied at saturating L-Phe",non-competitive inhibition; also recorded: likely a non-competitive inhibitor
same,Mode of inhibition with respect to L-Phe,"PfcFRS [1]; PfcFRS, L-Phe varied at saturating ATP",competitive inhibition; also recorded: competitive inhibitor
same,1/v (0.5 × IC50 ),PfcFRS [1]; [3],50.7634
same,1/v (0.5 × IC50 ),PfcFRS [1]; [4],35.2611
same,1/v (0.5 × IC50 ),PfcFRS [1]; [5],25.2226
same,1/v (0.5 × IC50 ),PfcFRS [1]; [6],18.8398
same,1/v (0.5 × IC50 ),PfcFRS [1]; [7],16
same,1/v (0.5 × IC50 ),PfcFRS [1]; [8],13.77
same,1/v (0.5 × IC50 ),PfcFRS [1]; [9],19.05
same,1/v (0.5 × IC50 ),PfcFRS [1]; [10],12.5
same,1/v (0.5 × IC50 ),PfcFRS [1]; [11],10
same,1/v (0.5 × IC50 ),PfcFRS [1]; [12],8.3
same,1/v (0.5 × IC50 ),PfcFRS [1]; [13],7.2
same,1/v (0.5 × IC50 ),PfcFRS [1]; [14],6.5
same,1/v (0.5 × IC50 ),PfcFRS [1]; [15],6.2
same,1/V (1 × IC50 ),PfcFRS [1]; [3],66.6667
same,1/V (1 × IC50 ),PfcFRS [1]; [4],44.4444
same,1/V (1 × IC50 ),PfcFRS [1]; [5],40.1698
same,1/V (1 × IC50 ),PfcFRS [1]; [6],25.8
same,1/V (1 × IC50 ),PfcFRS [1]; [7],20
same,1/V (1 × IC50 ),PfcFRS [1]; [8],13.7741
same,1/v (1 × IC50 ),PfcFRS [1]; [9],30
same,1/v (1 × IC50 ),PfcFRS [1]; [10],18.03
same,1/v (1 × IC50 ),PfcFRS [1]; [11],12
same,1/v (1 × IC50 ),PfcFRS [1]; [12],9
same,1/v (1 × IC50 ),PfcFRS [1]; [13],8
same,1/v (1 × IC50 ),PfcFRS [1]; [14],7.2
same,1/v (1 × IC50 ),PfcFRS [1]; [15],7
same,Kd,PfcFRS [2],4 nM

# Source: article PMC7803973, “Structural basis of malaria parasite phenylalanine tRNA-synthetase inhibition by bicyclic azetidines” (Nature Communications, 2021)
